The test has as its system C. elegans. The test is described as follows: microbe, parasite or virus in culture. To be noted: Caenorhabditis elegans.
[1] abbreviates: 0 h, read-out: Percentage of motility inhibition 0 h, Table S2, C. elegans SS assay, 110 μM, 0 h, averages of 4 data points.
Where [2] appears, read: 24 h, read-out: Percentage of motility inhibition 24 h, Table S2, C. elegans SS assay, 110 μM, 24 h, averages of 4 data points.
The mark [3] stands for this setting: 0 h, read-out: Percentage of motility inhibition 0 h.
Where [4] appears, read: 24 h, read-out: Percentage of motility inhibition 24 h.

45 compounds from PMC11855827, “High-Throughput Screening of Five Compound Libraries for Anthelmintic Activity and Toxicity Leads to the Discovery of Two Flavonoid Compounds” (International Journal of Molecular Sciences, 2025) can be followed below.

Where two headings read alike, the source gives them in different places.

In the case of `C[C@H]1O[C@@H](O[C@H]2CC[C@@]3(C)[C@@H](CC[C@]4(C)[C@@H]3C=C[C@]35OC[C@@]6(CCC(C)(C)C[C@H]63)[C@@H](O)C[C@]54C)[C@]2(C)CO)[C@H](O)[C@@H](O[C@@H]2O[C@H](CO)[C@@H](O)[C@H](O)[C@H]2O)[C@H]1O` [Saikosaponin A], the inhibition at 110 µM is, setting by setting: under setting [1], 2%; under setting [2], 4%.

Turning to `COc1cc(O)c2c(c1)O[C@H](c1ccc(O)cc1)CC2=O` [Sakuranetin], the inhibition at 110 µM was 19% under setting [1] and 18% under setting [2].

Consider `NC(=O)c1ccccc1O` [Salicylamide], for which the inhibition at 110 µM is, setting by setting: under setting [1], 2%; under setting [2], 0%.

In the case of `O=C(Nc1ccccc1)c1ccccc1O` [Salicylanilide], the inhibition at 110 µM under setting [1] was 43% and the inhibition at 110 µM under setting [2] turned out to be 21%.

For the compound `O=C(O)c1ccccc1O` [Salicylic acid], the inhibition at 110 µM was 12% under setting [1] and 8% under setting [2].

For `COc1cc2c(cc1OC)[C@H](C)NCC2` [Salsolidine], the inhibition at 110 µM was 0% under setting [1] and 0% under setting [2].

For the compound `COc1ccc(-c2cc(=O)c3c(O)c(OC)c(OC)cc3o2)cc1` [Salvigenin], the inhibition at 110 µM under setting [1] amounted to 22% and the inhibition at 110 µM under setting [2] was 3%.

As for `O=c1cc(-c2ccc(O)cc2)oc2cc(O[C@@H]3O[C@H](CO)[C@@H](O)[C@H](O)[C@H]3O)c([C@@H]3O[C@H](CO)[C@@H](O)[C@H](O)[C@H]3O)c(O)c12` [Saponarin], the inhibition at 110 µM runs as follows: under setting [1], 1%; under setting [2], 1%.

On to `O=C1/C(=C/c2ccc(O)c(O)c2)COc2cc(O)ccc21` [Sappanone A], for which the inhibition at 110 µM by setting is: under setting [1], 0%; under setting [2], 0%.

As for `CC(C)(C)NC(=O)[C@@H]1C[C@@H]2CCCC[C@@H]2CN1C[C@@H](O)[C@H](Cc1ccccc1)NC(=O)[C@H](CC(N)=O)NC(=O)c1ccc2ccccc2n1` [Saquinavir], the inhibition at 110 µM under setting [1] was 37% and the inhibition at 110 µM under setting [2] worked out at 0%.

With `C[C@@H]1[C@H]2c3cc4c(cc3O[C@@]35OCOC3=CC(=O)[C@H](C[C@H]1C)[C@@H]25)OCO4` [Sauchinone], the inhibition at 110 µM came out at 18% under setting [1] and 25% under setting [2].

`C=C[C@](C)(O)CC[C@@H]1[C@@]2(C)CCCC(C)(C)[C@@H]2CC[C@@]1(C)O` [Sclareol]: the inhibition at 110 µM is 28% under setting [1] and 10% under setting [2].

For the compound `O=c1cc(-c2ccc(O)cc2)oc2cc(O)c(O)c(O)c12` [Scutellarein], the inhibition at 110 µM runs as follows: under setting [3], 49%; under setting [4], 3%.

Consider `O=C(O)[C@H]1O[C@@H](Oc2cc3oc(-c4ccc(O)cc4)cc(=O)c3c(O)c2O)[C@H](O)[C@@H](O)[C@@H]1O` [Scutellarin], for which the inhibition at 110 µM was 31% under setting [1] and 1% under setting [2].

Take `Cc1ncc([N+](=O)[O-])n1CC(C)O` (stereo not drawn) [Secnidazole]: the inhibition at 110 µM reads like this: under setting [3], 26%; under setting [4], 3%.

With `C/C=C1/C[C@@H](C)[C@@](C)(O)C(=O)OCC2=CC[N+]3([O-])CC[C@@H](OC1=O)[C@@H]23` (stereo partly drawn) [Senecionine N‐oxide], the inhibition at 110 µM runs as follows: under setting [1], 39%; under setting [2], 43%.

In the case of `C/C=C1/C[C@@H](C)[C@@](C)(O)C(=O)OCC2=CCN3CC[C@@H](OC1=O)[C@@H]23` [Senecionine], the inhibition at 110 µM by setting is: under setting [3], 0%; under setting [4], 24%.

With `C=C1C/C(=C/C)C(=O)O[C@@H]2CCN3CC=C(COC(=O)[C@]1(C)O)[C@H]23` [Seneciphylline], the inhibition at 110 µM reads like this: under setting [1], 0%; under setting [2], 1%.

For the compound `COC(=O)C1=CO[C@@H](O[C@@H]2O[C@H](CO)[C@@H](O)[C@H](O)[C@H]2O)[C@H]2[C@@H]1[C@H](O)C[C@]2(C)O` [Shanzhiside methyl ester], the inhibition at 110 µM reads like this: under setting [1], 32%; under setting [2], 38%.

As for `CCCCC/C=C/C(=O)CCc1ccc(O)c(OC)c1` [Shogaol], the inhibition at 110 µM stood at 0% under setting [1] and 5% under setting [2].

Regarding `COc1cc(C2Oc3cc([C@H]4Oc5cc(O)cc(O)c5C(=O)[C@@H]4O)ccc3OC2CO)ccc1O` (stereo partly drawn) [Silibinin], the inhibition at 110 µM under setting [1] is 0% and the inhibition at 110 µM under setting [2] was 0%.

For `COc1cc([C@H]2Oc3cc([C@H]4Oc5cc(O)cc(O)c5C(=O)[C@@H]4O)ccc3O[C@@H]2CO)ccc1O` [Silybin A], the inhibition at 110 µM came out at 22% under setting [1] and 20% under setting [2].

On to `COc1cc([C@@H]2[C@H]3CO[C@@]4(O)C(=O)[C@@H]2C=C([C@H]2Oc5cc(O)cc(O)c5C(=O)[C@@H]2O)[C@@H]34)ccc1O` [Silydianin], for which the inhibition at 110 µM reads like this: under setting [1], 17%; under setting [2], 4%.

Take `COc1ccc2c(O[C@@H]3C[C@H]4C(=O)N[C@]5(C(=O)NS(=O)(=O)C6CC6)C[C@H]5/C=C\CCCCN(C)C(=O)[C@@H]4C3)cc(-c3nc(C(C)C)cs3)nc2c1C` [Simeprevir]: the inhibition at 110 µM under setting [1] was determined as 2% and the inhibition at 110 µM under setting [2] was found to be 25%.

As to `COc1ccc(-c2cc(=O)c3c(OC)c(OC)c(OC)cc3o2)cc1OC` [Sinensetin], the inhibition at 110 µM by setting is: under setting [1], 0%; under setting [2], 0%.

With `COc1ccc2c(OC)c3ccoc3nc2c1OC` [Skimmianine], the inhibition at 110 µM was 0% under setting [1] and 15% under setting [2].

Consider `COc1cccc(O)c1-c1cc(=O)c2c(O)c(OC)c(OC)c(OC)c2o1` [Skullcapflavone II], for which the inhibition at 110 µM was 4% under setting [3] and 6% under setting [4].

For the compound `C[C@@H]1CC[C@@]2(NC1)O[C@H]1C[C@H]3[C@@H]4CC=C5C[C@@H](O[C@@H]6O[C@H](CO)[C@@H](O[C@@H]7O[C@@H](C)[C@H](O)[C@@H](O)[C@H]7O)[C@H](O)[C@H]6O[C@@H]6O[C@@H](C)[C@H](O)[C@@H](O)[C@H]6O)CC[C@]5(C)[C@H]4CC[C@]3(C)[C@H]1[C@@H]2C` [Solamargine], the inhibition at 110 µM reads like this: under setting [1], 0%; under setting [2], 0%.

Take `C[C@H]1CC[C@@H]2[C@@H](C)[C@H]3[C@H](C[C@H]4[C@@H]5CC=C6C[C@@H](O)CC[C@]6(C)[C@H]5CC[C@]34C)N2C1` [Solanidine]: the inhibition at 110 µM reads like this: under setting [1], 0%; under setting [2], 0%.

As to `C[C@@H]1CC[C@@]2(NC1)O[C@H]1C[C@H]3[C@@H]4CC=C5C[C@@H](O)CC[C@]5(C)[C@H]4CC[C@]3(C)[C@H]1[C@@H]2C` [Solasodine], the inhibition at 110 µM under setting [1] was 12% and the inhibition at 110 µM under setting [2] turned out to be 20%.

In the case of `C[C@@H]1CC[C@@]2(NC1)O[C@H]1C[C@H]3[C@@H]4CC=C5C[C@@H](O[C@@H]6O[C@H](CO)[C@H](O)[C@H](O[C@@H]7O[C@H](CO)[C@@H](O)[C@H](O)[C@H]7O)[C@H]6O[C@@H]6O[C@@H](C)[C@H](O)[C@@H](O)[C@H]6O)CC[C@]5(C)[C@H]4CC[C@]3(C)[C@H]1[C@@H]2C` [Solasonine], the inhibition at 110 µM by setting is: under setting [1], 0%; under setting [2], 0%.

For the compound `C=C1[C@H]2C[C@@]3([C@@H]1O)[C@@H](CC2=O)[C@]12[C@@H]4C[C@H]3[C@H]1N(CC)C[C@]4(C)CC[C@@H]2O` [Songorine], the inhibition at 110 µM turned out to be 5% under setting [3] and 9% under setting [4].

Regarding `O=C1C=CC[C@@H]2[C@H]3CCCN4CCC[C@@H](CN12)[C@@H]34` [Sophocarpine], the inhibition at 110 µM under setting [1] came out at 11% and the inhibition at 110 µM under setting [2] was determined as 9%.

Turning to `C=C(C)[C@H](CC=C(C)C)Cc1c(O)cc(O)c2c1O[C@H](c1ccc(O)cc1O)CC2=O` [Sophoraflavanone G], the inhibition at 110 µM under setting [3] came to 55% and the inhibition at 110 µM under setting [4] worked out at 4%.

Take `O=c1c(-c2ccc(O[C@@H]3O[C@H](CO)[C@@H](O)[C@H](O)[C@H]3O)cc2)coc2cc(O)cc(O)c12` [Sophoricoside]: the inhibition at 110 µM reads like this: under setting [3], 0%; under setting [4], 9%.

Regarding `CC1(C)C[C@H]2C3=CC[C@@H]4[C@@]5(C)CC[C@H](O)[C@](C)(CO)[C@@H]5CC[C@@]4(C)[C@]3(C)CC[C@@]2(C)[C@H](O)[C@@H]1O` [Soyasapogenol A], the inhibition at 110 µM by setting is: under setting [1], 5%; under setting [2], 3%.

Regarding `CC1(C)C[C@@H](O)[C@]2(C)CC[C@]3(C)C(=CC[C@@H]4[C@@]5(C)CC[C@H](O)[C@](C)(CO)[C@@H]5CC[C@]43C)[C@@H]2C1` [Soyasapogenol B], the inhibition at 110 µM was 9% under setting [1] and 39% under setting [2].

With `C[C@@H]1CN(c2c(F)c(N)c3c(=O)c(C(=O)O)cn(C4CC4)c3c2F)C[C@H](C)N1` [Sparfloxacin], the inhibition at 110 µM is, setting by setting: under setting [1], 37%; under setting [2], 11%.

Turning to `O=C1NCN(c2ccccc2)C12CCN(CCCOc1ccc(F)cc1)CC2` [Spiramide], the inhibition at 110 µM under setting [1] was 49% and the inhibition at 110 µM under setting [2] was 6%.

As for `Cc1cn([C@H]2C=C[C@@H](CO)O2)c(=O)[nH]c1=O` [Stavudine], the inhibition at 110 µM reads like this: under setting [1], 25%; under setting [2], 3%.

As for `CCCCCCCCCCCCCCCCCC(=O)O` [Stearic acid], the inhibition at 110 µM came out at 0% under setting [1] and 1% under setting [2].

For the compound `C=C1C[C@@]23CC[C@H]4[C@@](C)(CCC[C@@]4(C)C(=O)O)[C@@H]2CC[C@]1(O)C3` [Steviol], the inhibition at 110 µM is, setting by setting: under setting [1], 13%; under setting [2], 34%.

On to `C=C1C[C@@]23CC[C@H]4[C@@](C)(CCC[C@@]4(C)C(=O)O[C@@H]4O[C@H](CO)[C@@H](O)[C@H](O)[C@H]4O)[C@@H]2CC[C@]1(O[C@@H]1O[C@H](CO)[C@@H](O)[C@H](O)[C@H]1O[C@@H]1O[C@H](CO)[C@@H](O)[C@H](O)[C@H]1O)C3` [Stevioside], for which the inhibition at 110 µM amounted to 15% under setting [1] and 0% under setting [2].

For `O=C(O)CCC(=O)O` [Succinic acid], the inhibition at 110 µM is, setting by setting: under setting [1], 14%; under setting [2], 15%.

`O=C(O)CCC(=O)Nc1ccc(S(=O)(=O)Nc2nccs2)cc1` [Succinylsulfathiazole]: the inhibition at 110 µM by setting is: under setting [1], 31%; under setting [2], 17%.

Broadly, the inhibition is the percentage by which the read-out fell short of the control.
